Data as given in patent US3989730A, “Bone-seeking technetium-99m complex” (priority 1973, dated 1976).
Like-named read-outs stand apart in the source and are kept apart here.

Conditions: for Blood, % Dose in Whole Organ / Blood, % dose / 1 % body weight / Bone Ave, % Dose/1 % Body weight / Femur, % dose / 1 % body weight / Kidneys, % Dose in Whole Organ / Kidneys, % dose / 1 % body weight / Liver, % Dose in Whole Organ / Liver, % dose / 1 % body weight / Marrow, % Dose in Whole Organ / Marrow, % dose / 1 % body weight / Muscle, % Dose in Whole Organ / Muscle, % dose / 1 % body weight / Pelvis, % dose / 1 % body weight / Spine, % dose / 1 % body weight / Tibia, % dose / 1 % body weight / Urine, % Dose / W. Femur, % Dose in Whole Organ / W. Tibia, % Dose in Whole Organ: 2 Hrs; for Ratio 99mTc/85Sr, Ave Bone / Ratio 99mTc/85Sr, Blood / Ratio 99mTc/85Sr, Femur / Ratio 99mTc/85Sr, Kidneys / Ratio 99mTc/85Sr, Liver / Ratio 99mTc/85Sr, Marrow / Ratio 99mTc/85Sr, Muscle / Ratio 99mTc/85Sr, Pelvis / Ratio 99mTc/85Sr, Spine / Ratio 99mTc/85Sr, Tibia: 2 hours

In the case of “99m technetium-tin-1-amino-ethane-1,1-diphosphonate [99mTc-Sn-AEDP]”, the “Blood, % Dose in Whole Organ” value (AEDP 0.01 mg/kg) is reported as 1.18 % Dose, the “Blood, % dose / 1 % body weight” value (AEDP 0.01 mg/kg) is reported as 0.168 % Dose/1 % Body weight and the “Bone Ave, % Dose/1 % Body weight” value (AEDP 0.01 mg/kg) is reported as 7.60 % Dose/1 % Body weight. The “Femur, % dose / 1 % body weight” value (AEDP 0.01 mg/kg) was 7.54 % Dose/1 % Body weight, the “Kidneys, % Dose in Whole Organ” value (AEDP 0.01 mg/kg) was 1.59 % Dose and the “Kidneys, % dose / 1 % body weight” value (AEDP 0.01 mg/kg) was 2.72 % Dose/1 % Body weight. The “Liver, % Dose in Whole Organ” value (AEDP 0.01 mg/kg) was 1.69 % Dose, the “Liver, % dose / 1 % body weight” value (AEDP 0.01 mg/kg) was 0.617 % Dose/1 % Body weight and the “Marrow, % Dose in Whole Organ” value (AEDP 0.01 mg/kg) was 0.657 % Dose. For the same substance, the “Marrow, % dose / 1 % body weight” value (AEDP 0.01 mg/kg) was 0.300 % Dose/1 % Body weight, the “Muscle, % Dose in Whole Organ” value (AEDP 0.01 mg/kg) was 0.988 % Dose and the “Muscle, % dose / 1 % body weight” value (AEDP 0.01 mg/kg) was 0.037 % Dose/1 % Body weight. For the same substance, the “Pelvis, % dose / 1 % body weight” value (AEDP 0.01 mg/kg) was 8.53 % Dose/1 % Body weight, the “Spine, % dose / 1 % body weight” value (AEDP 0.01 mg/kg) was 6.20 % Dose/1 % Body weight and the “Tibia, % dose / 1 % body weight” value (AEDP 0.01 mg/kg) was 8.13 % Dose/1 % Body weight. The “Urine, % Dose” value (AEDP 0.01 mg/kg) was 48.39 % Dose, the “W. Femur, % Dose in Whole Organ” value (AEDP 0.01 mg/kg) was 2.34 % Dose and the “W. Tibia, % Dose in Whole Organ” value (AEDP 0.01 mg/kg) was 1.96 % Dose. For the same substance, the “Blood, % Dose in Whole Organ” value (AEDP 0.05 mg/kg) was 1.01 % Dose, the “Blood, % dose / 1 % body weight” value (AEDP 0.05 mg/kg) was 0.144 % Dose/1 % Body weight and the “Bone Ave, % Dose/1 % Body weight” value (AEDP 0.05 mg/kg) was 8.39 % Dose/1 % Body weight. The “Femur, % dose / 1 % body weight” value (AEDP 0.05 mg/kg) was 8.63 % Dose/1 % Body weight, the “Kidneys, % Dose in Whole Organ” value (AEDP 0.05 mg/kg) was 1.13 % Dose and the “Kidneys, % dose / 1 % body weight” value (AEDP 0.05 mg/kg) was 1.83 % Dose/1 % Body weight. The “Liver, % Dose in Whole Organ” value (AEDP 0.05 mg/kg) was 0.806 % Dose, the “Liver, % dose / 1 % body weight” value (AEDP 0.05 mg/kg) was 0.176 % Dose/1 % Body weight and the “Marrow, % Dose in Whole Organ” value (AEDP 0.05 mg/kg) was 0.549 % Dose. For the same substance, the “Marrow, % dose / 1 % body weight” value (AEDP 0.05 mg/kg) was 0.250 % Dose/1 % Body weight, the “Muscle, % Dose in Whole Organ” value (AEDP 0.05 mg/kg) was 1.20 % Dose and the “Muscle, % dose / 1 % body weight” value (AEDP 0.05 mg/kg) was 0.028 % Dose/1 % Body weight. The “Pelvis, % dose / 1 % body weight” value (AEDP 0.05 mg/kg) was 7.82 % Dose/1 % Body weight, the “Spine, % dose / 1 % body weight” value (AEDP 0.05 mg/kg) was 7.80 % Dose/1 % Body weight and the “Tibia, % dose / 1 % body weight” value (AEDP 0.05 mg/kg) was 9.30 % Dose/1 % Body weight. For the same substance, the “Urine, % Dose” value (AEDP 0.05 mg/kg) was 44.21 % Dose, the “W. Femur, % Dose in Whole Organ” value (AEDP 0.05 mg/kg) was 2.41 % Dose and the “W. Tibia, % Dose in Whole Organ” value (AEDP 0.05 mg/kg) was 2.14 % Dose. For the same substance, the “Blood, % Dose in Whole Organ” value (AEDP 0.1 mg/kg) was 0.96 % Dose, the “Blood, % dose / 1 % body weight” value (AEDP 0.1 mg/kg) was 0.137 % Dose/1 % Body weight and the “Bone Ave, % Dose/1 % Body weight” value (AEDP 0.1 mg/kg) was 7.51 % Dose/1 % Body weight. For the same substance, the “Femur, % dose / 1 % body weight” value (AEDP 0.1 mg/kg) was 7.93 % Dose/1 % Body weight, the “Kidneys, % Dose in Whole Organ” value (AEDP 0.1 mg/kg) was 0.913 % Dose and the “Kidneys, % dose / 1 % body weight” value (AEDP 0.1 mg/kg) was 1.28 % Dose/1 % Body weight. The “Liver, % Dose in Whole Organ” value (AEDP 0.1 mg/kg) was 0.309 % Dose, the “Liver, % dose / 1 % body weight” value (AEDP 0.1 mg/kg) was 0.083 % Dose/1 % Body weight and the “Marrow, % Dose in Whole Organ” value (AEDP 0.1 mg/kg) was 0.211 % Dose. The “Marrow, % dose / 1 % body weight” value (AEDP 0.1 mg/kg) was 0.096 % Dose/1 % Body weight, the “Muscle, % Dose in Whole Organ” value (AEDP 0.1 mg/kg) was 1.46 % Dose and the “Muscle, % dose / 1 % body weight” value (AEDP 0.1 mg/kg) was 0.034 % Dose/1 % Body weight. For the same substance, the “Pelvis, % dose / 1 % body weight” value (AEDP 0.1 mg/kg) was 6.24 % Dose/1 % Body weight, the “Spine, % dose / 1 % body weight” value (AEDP 0.1 mg/kg) was 7.36 % Dose/1 % Body weight and the “Tibia, % dose / 1 % body weight” value (AEDP 0.1 mg/kg) was 8.50 % Dose/1 % Body weight. The “Urine, % Dose” value (AEDP 0.1 mg/kg) was 38.8 % Dose, the “W. Femur, % Dose in Whole Organ” value (AEDP 0.1 mg/kg) was 2.38 % Dose and the “W. Tibia, % Dose in Whole Organ” value (AEDP 0.1 mg/kg) was 2.18 % Dose. The “Blood, % Dose in Whole Organ” value (AEDP 0.5 mg/kg) was 1.38 % Dose, the “Blood, % dose / 1 % body weight” value (AEDP 0.5 mg/kg) was 0.197 % Dose/1 % Body weight and the “Bone Ave, % Dose/1 % Body weight” value (AEDP 0.5 mg/kg) was 6.96 % Dose/1 % Body weight. For the same substance, the “Femur, % dose / 1 % body weight” value (AEDP 0.5 mg/kg) was 6.59 % Dose/1 % Body weight, the “Kidneys, % Dose in Whole Organ” value (AEDP 0.5 mg/kg) was 1.11 % Dose and the “Kidneys, % dose / 1 % body weight” value (AEDP 0.5 mg/kg) was 2.11 % Dose/1 % Body weight. For the same substance, the “Liver, % Dose in Whole Organ” value (AEDP 0.5 mg/kg) was 0.216 % Dose, the “Liver, % dose / 1 % body weight” value (AEDP 0.5 mg/kg) was 0.079 % Dose/1 % Body weight and the “Marrow, % Dose in Whole Organ” value (AEDP 0.5 mg/kg) was 0.23 % Dose. The “Marrow, % dose / 1 % body weight” value (AEDP 0.5 mg/kg) was 0.104 % Dose/1 % Body weight, the “Muscle, % Dose in Whole Organ” value (AEDP 0.5 mg/kg) was 0.883 % Dose and the “Muscle, % dose / 1 % body weight” value (AEDP 0.5 mg/kg) was 0.021 % Dose/1 % Body weight. The “Pelvis, % dose / 1 % body weight” value (AEDP 0.5 mg/kg) was 7.93 % Dose/1 % Body weight, the “Spine, % dose / 1 % body weight” value (AEDP 0.5 mg/kg) was 6.05 % Dose/1 % Body weight and the “Tibia, % dose / 1 % body weight” value (AEDP 0.5 mg/kg) was 7.27 % Dose/1 % Body weight. The “Urine, % Dose” value (AEDP 0.5 mg/kg) was 48.85 % Dose, the “W. Femur, % Dose in Whole Organ” value (AEDP 0.5 mg/kg) was 1.74 % Dose and the “W. Tibia, % Dose in Whole Organ” value (AEDP 0.5 mg/kg) was 1.55 % Dose. The “Ratio 99mTc/85Sr, Ave Bone” value (0.01 mg/kg) was 0.735, the “Ratio 99mTc/85Sr, Blood” value (0.01 mg/kg) was 0.406 and the “Ratio 99mTc/85Sr, Femur” value (0.01 mg/kg) was 0.720. For the same substance, the “Ratio 99mTc/85Sr, Kidneys” value (0.01 mg/kg) was 4.99, the “Ratio 99mTc/85Sr, Liver” value (0.01 mg/kg) was 3.00 and the “Ratio 99mTc/85Sr, Marrow” value (0.01 mg/kg) was 1.27. For the same substance, the “Ratio 99mTc/85Sr, Muscle” value (0.01 mg/kg) was 0.338, the “Ratio 99mTc/85Sr, Pelvis” value (0.01 mg/kg) was 0.794 and the “Ratio 99mTc/85Sr, Spine” value (0.01 mg/kg) was 0.689. The “Ratio 99mTc/85Sr, Tibia” value (0.01 mg/kg) was 0.710, the “Ratio 99mTc/85Sr, Ave Bone” value (0.05 mg/kg) was 0.683 and the “Ratio 99mTc/85Sr, Blood” value (0.05 mg/kg) was 0.409. For the same substance, the “Ratio 99mTc/85Sr, Femur” value (0.05 mg/kg) was 0.687, the “Ratio 99mTc/85Sr, Kidneys” value (0.05 mg/kg) was 3.30 and the “Ratio 99mTc/85Sr, Liver” value (0.05 mg/kg) was 1.32. The “Ratio 99mTc/85Sr, Marrow” value (0.05 mg/kg) was 1.18, the “Ratio 99mTc/85Sr, Muscle” value (0.05 mg/kg) was 0.236 and the “Ratio 99mTc/85Sr, Pelvis” value (0.05 mg/kg) was 0.684. The “Ratio 99mTc/85Sr, Spine” value (0.05 mg/kg) was 0.675, the “Ratio 99mTc/85Sr, Tibia” value (0.05 mg/kg) was 0.681 and the “Ratio 99mTc/85Sr, Ave Bone” value (0.1 mg/kg) was 0.716. For the same substance, the “Ratio 99mTc/85Sr, Blood” value (0.1 mg/kg) was 0.409, the “Ratio 99mTc/85Sr, Femur” value (0.1 mg/kg) was 0.714 and the “Ratio 99mTc/85Sr, Kidneys” value (0.1 mg/kg) was 2.94. The “Ratio 99mTc/85Sr, Liver” value (0.1 mg/kg) was 0.490, the “Ratio 99mTc/85Sr, Marrow” value (0.1 mg/kg) was 0.621 and the “Ratio 99mTc/85Sr, Muscle” value (0.1 mg/kg) was 0.205. For the same substance, the “Ratio 99mTc/85Sr, Pelvis” value (0.1 mg/kg) was 0.725, the “Ratio 99mTc/85Sr, Spine” value (0.1 mg/kg) was 0.705 and the “Ratio 99mTc/85Sr, Tibia” value (0.1 mg/kg) was 0.721. The “Ratio 99mTc/85Sr, Ave Bone” value (0.5 mg/kg) was 0.644, the “Ratio 99mTc/85Sr, Blood” value (0.5 mg/kg) was 0.280 and the “Ratio 99mTc/85Sr, Femur” value (0.5 mg/kg) was 0.628. For the same substance, the “Ratio 99mTc/85Sr, Kidneys” value (0.5 mg/kg) was 2.47, the “Ratio 99mTc/85Sr, Liver” value (0.5 mg/kg) was 0.459 and the “Ratio 99mTc/85Sr, Marrow” value (0.5 mg/kg) was 0.500. For the same substance, the “Ratio 99mTc/85Sr, Muscle” value (0.5 mg/kg) was 0.140, the “Ratio 99mTc/85Sr, Pelvis” value (0.5 mg/kg) was 0.692 and the “Ratio 99mTc/85Sr, Spine” value (0.5 mg/kg) was 0.614. For the same substance, the “Ratio 99mTc/85Sr, Tibia” value (0.5 mg/kg) was 0.632.
